The results in this text go back to PMC12508057, “Discovery of ETI41 and ETI60: novel selective endosomal Toll-like receptor inhibitors for the treatment of autoimmune diseases” (Experimental & Molecular Medicine, 2025).

For orientation: Kd means the constant that tells how readily two partners part at equilibrium.

Where two headings read alike, the source gives them in different places.

One test deals with IMQ-induced psoriasis. As to the kind of experiment: IMQ-induced psoriasis in mice. The following applies: 60 mg/kg oral daily. Format: in vivo, mouse. The protocol:
Six-week-old female C57BL/6J mice were assigned to the following treatment groups: vehicle (n = 5), IMQ (n = 5), ETI41 (n = 4) and ETI60 (n = 5). The mice were obtained from Orient Bio to evaluate the effects of ETI41 and ETI60 on induced psoriasis-like symptoms. This study was approved by the Institutional Animal Care and Use Committee (IACUC; approval no. 2014-0007). Psoriasis was induced using Aldara cream (3M Pharmaceuticals), which was applied topically at 62.5 mg/cm² daily from the day after hair removal until the fourth day. Mice were orally administered 60 mg/kg ETI41 or ETI60 daily commencing on the second day of induction. For IL-23-induced psoriasis, the mice were assigned to the following treatment groups: vehicle (n = 5), IL-23 (n = 5), ETI41 (n = 5), ETI60 (n = 5) and anti-IL-17 Ab (n = 5). Recombinant mouse IL-23 (0.25 mg/kg; BioLegend) was administered via intradermal injection around the ear daily, starting the day after hair removal and continuing until the eighth day. Positive control mice received intraperitoneal (IP) injections of 30 mg/kg anti-mouse IL-17A antibody (BioLegend) on days 2, 5 and 8, while test group mice were administered daily oral doses of 60 mg/kg of ETI41 or ETI60. Changes in body weight and Psoriasis Area and Severity Index (PASI) scores (erythema, scaling and thickness) were recorded daily. Mice were initially anesthetized in an induction chamber with a gas mixture of 4% isoflurane in 70:30 […] and O2, delivered at a flow rate of 0.8 l/min. Subsequently, the isoflurane concentration was reduced to 2%, and the mice were euthanized under anesthesia via endotracheal intubation. Skin samples were collected, fixed and stained with hematoxylin and eosin for histological analysis. Dermal and epidermal thicknesses were measured using a Leica DMi8 microscope (Leica). Immunohistochemical analyses were performed using primary antibodies against CD68 (R&D Systems, MAB101141), Ki-67 (Cell Signaling Technology, 12202), IL-17A (Novus Biologicals, NBP1-72027) and IL-23 (Novus Biologicals, NBP1-76697), followed by detection using biotinylated secondary antibodies (Vector Laboratories) and diaminobenzidine (Vector Laboratories) visualization. Fluorescence measurements for IL-23-induced psoriasis were performed using primary antibodies against CD68 and Ki-67, followed by Alexa Fluor-conjugated secondary antibodies (Life Technologies). Fluorescence was analyzed using a Leica DMi8 microscope.
Anti-IL17A antibody (Ab, 60 µg) was administered by IP injection as a positive control on days 2, 5 and 8. […] CD68 and Ki-67 expression patterns were determined in skin sections from a representative of each group using immunofluorescence. i Ear skin and epidermis thickness, CD68 expression and percentage of Ki-67 cells were examined from 4’,6-diamidino-2-phenylindole-stained cells. Statistical differences between the induced case and other cases were analyzed and verified using a one-tailed Student’s t-test (*P < 0.05, **P < 0.01, ***P < 0.001).

For the next test, the target named is T1, murine TLR9 (Mus musculus, UniProt Q9EQU3).
T1 construct: Fc; purchased R&D Systems
T1 sequence (Q9EQU3 with tags, fused parts or gaps limits assumed): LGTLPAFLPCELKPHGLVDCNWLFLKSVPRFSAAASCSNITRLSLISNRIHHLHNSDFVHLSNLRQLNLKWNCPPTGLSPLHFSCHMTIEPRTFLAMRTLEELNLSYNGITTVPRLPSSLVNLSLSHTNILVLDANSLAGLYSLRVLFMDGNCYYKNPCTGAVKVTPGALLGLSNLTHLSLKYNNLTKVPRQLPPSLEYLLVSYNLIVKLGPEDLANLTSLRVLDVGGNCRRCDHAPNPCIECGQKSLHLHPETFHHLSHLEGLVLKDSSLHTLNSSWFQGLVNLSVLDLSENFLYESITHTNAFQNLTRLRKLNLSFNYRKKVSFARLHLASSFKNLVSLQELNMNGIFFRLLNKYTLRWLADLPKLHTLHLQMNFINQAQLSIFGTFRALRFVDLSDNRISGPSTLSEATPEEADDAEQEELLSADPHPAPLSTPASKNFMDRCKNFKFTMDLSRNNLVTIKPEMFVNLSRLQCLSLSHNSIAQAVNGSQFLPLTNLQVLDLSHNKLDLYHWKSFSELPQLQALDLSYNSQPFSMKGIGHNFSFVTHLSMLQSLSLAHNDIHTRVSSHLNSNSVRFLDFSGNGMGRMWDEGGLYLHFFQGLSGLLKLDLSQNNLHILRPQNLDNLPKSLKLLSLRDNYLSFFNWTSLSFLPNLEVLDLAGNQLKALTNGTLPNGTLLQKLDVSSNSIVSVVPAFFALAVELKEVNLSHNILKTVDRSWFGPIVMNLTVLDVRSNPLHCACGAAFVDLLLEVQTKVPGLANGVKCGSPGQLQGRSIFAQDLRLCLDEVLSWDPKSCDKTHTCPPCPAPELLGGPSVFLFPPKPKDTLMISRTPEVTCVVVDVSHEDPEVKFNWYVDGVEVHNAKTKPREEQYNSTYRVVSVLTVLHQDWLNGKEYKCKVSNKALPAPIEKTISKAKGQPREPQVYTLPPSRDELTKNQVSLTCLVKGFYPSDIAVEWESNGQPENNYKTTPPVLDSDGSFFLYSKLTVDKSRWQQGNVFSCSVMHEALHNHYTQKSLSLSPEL
Put plainly: SPR binding to TLR9. Here is the method: Surface plasmon resonance (SPR) analysis was conducted using an SR7500DC SPR System (Reichert) with a CMDH chip for human TLR7 and murine TLR9 (R&D Systems) and a Biacore T200 platform (Cytiva) with a CM5 chip for TLR9–ODN binding. The running buffer contained 0.5% DMSO and phosphate-buffered saline, and 50 mM NaOH was used for regeneration. ETI series compounds were serially diluted from 500 μM and tested for binding affinity. Binding curves were analyzed using Scrubber2 and Biacore T200 evaluation softwares. The dissociation constants (KD) were calculated as KD = kd/ka.
SPR confirmed the binding mechanisms of ETI41 and ETI60 with TLR7 and TLR9, respectively, under three conditions: (a) early endosome (pH 7.4), (b) late endosome without CpG (pH 5.5) and (c) late endosome with CpG (pH 5.5). (a) Both ETI41 and ETI60 were measured for parameters indicating binding affinity, including the KD value presented in Table 3, and were further analyzed under conditions (b) and (c), depending on the presence or absence of ligand, to explain the binding mechanism occurring in TLR9.

In test [1] the test system is IMQ-induced (TLR7) gene expression in RAW 264.7 cells. As to the kind of experiment: 3' mRNA sequencing of IMQ-stimulated RAW 264.7 cells. Format: cell-based, mouse. To be noted: for Expression of IMQ-induced inflammation-associated genes: RAW 264.7, 2 and 4 h; for Differentially expressed genes (DEGs) / Downregulated DEGs / Upregulated DEGs: RAW 264.7, IMQ-stimulated. Here is the method:
RNA quality was assessed using a TapeStation 4000 system (Agilent Technologies). Libraries were prepared using a QuantSeq 3 mRNA-Seq Library Prep Kit FWD (Lexogen) and sequenced using a NextSeq 550 System (Illumina). Sequences were trimmed using BBDuk and aligned with Bowtie2, and the reads were counted using Bedtools[21]–[23]. Data were normalized using edgeR software (Ebiogen) and analyzed for gene function using the Database for Annotation, Visualization, and Integrated Discovery) and for pathway analysis using KEGG Mapper[24],[25]. RNA-seq data were deposited in the Gene Expression Omnibus database under accession number GSE255890.
Fig. 2 ETI41 and ETI60 inhibit TLR7- and TLR9-dependent downstream signaling. a, b Western blot analysis was used to quantify the protein levels of phosphorylated p-ERK, p-JNK, p38, Iκ-Bα and p65. RAW 264.7 cells were treated with 5 μM or 10 μM of ETI41 or ETI60, followed by exposure to IMQ (2 μg/ml) for 20 or 30 min (a) and ODN2395 (1 μM) for 40 or 50 min (b) respectively. β-Actin served as a loading control for the cytosol, while lamin A/C was utilized as a loading control for the nucleus. c Protein levels of IRF7 were measured after treatment with 5 μM of ETI41 or ETI60, followed by treatment with ODN2395 (1 μM) for 6 or 8 h. d BMDC cells from ex vivo were used to analyze mRNA expression levels of IL-12p40, IFN-β and CD40. Cells were pretreated with ETI41 (0.2 and 1 μM), followed by treatment with ODN2395 (1 μM) for 3 h. All experiments were independently conducted three times. Statistical differences between the induced and other cases were analyzed and verified using a one-tailed Student’s t-test (*P < 0.05, **P < 0.01, ***P < 0.001). e–g The TLR7 agonist IMQ (1 μM) was used in 3’ RNA-seq analysis to induce signaling associated with immune responses in RAW 264.7 cells. […] (e–g) depict changes in gene expression categories without pretreatment (e) after pretreatment with ETI41 (f) or after pretreatment with ETI60 (g) followed by IMQ stimulation. h Heatmaps depicting gene expression patterns within the inflammation and immune response categories (fold change >2.5, P < 0.05) of ETI41 or ETI60, dividing the time after IMQ treatment into 0, 2 and 4 h, respectively. […]

The mark [2] stands for this setting: acidic pH 5.5 (late endosome), without or with CpG.
Setting [3] is: neutral pH 7.4 (early endosome).

Take `Cc1cc2c(N)c3c(nc2n1CCCN(C)C)CCCCCC3` [ETI41]: in the test on IMQ-induced psoriasis, the “Dermal inflammatory cell infiltration” value is “inhibited”; the Dermal thickness result is “significantly reduced”; the Epidermal acanthosis entry was “significantly reduced”; the “IL-17A and IL-23 expression” value is “inhibited”. Also, in the test on IMQ-induced psoriasis, the Keratinocyte proliferation result is “significantly reduced” and the PASI scores result is on record as “significantly reduced”. At murine TLR9 (Fc-TLR9, pH 7.4), this compound had a kd of 0.191 s⁻¹. Besides, the “SPR binding to TLR9” value on murine TLR9 (setting [2]) is recorded as “binding was detected only in the late endosomal state where the natural ligand is present”. At murine TLR9 (setting [3]), the “SPR binding to TLR9” value is recorded as “clear binding affinity”. The kon at murine TLR9 (pH 7.4, read-out: ka) came out at 10 M⁻¹ s⁻¹. In test [1], the “Expression of IMQ-induced inflammation-associated genes” value is on record as “markedly reduced”, the “Differentially expressed genes (DEGs)” value worked out at 509, the “Downregulated DEGs” value was found to be 296 and the “Upregulated DEGs” value is on record as 213.
`COc1ccc2c3c(N)c4c(nc3n(CCCN(C)C)c2c1)CCCC4` [ETI60]: in the test with IMQ-induced psoriasis, the “Dermal inflammatory cell infiltration” value is on record as “inhibited”; the Dermal thickness result was “significantly reduced”; the Epidermal acanthosis result is recorded as “significantly reduced”; the “IL-17A and IL-23 expression” value was “inhibited”. Besides, in the test on IMQ-induced psoriasis, the Keratinocyte proliferation entry is recorded as “significantly reduced” and the PASI scores entry was “significantly reduced”. At murine TLR9 (Fc-TLR9, pH 7.4), this compound displayed a Kd of 1500 µM and a kd of 0.106 s⁻¹. Moreover, the kon on murine TLR9 (Fc-TLR9, pH 7.4, read-out: ka) turned out to be 71 M⁻¹ s⁻¹. In addition, the “SPR binding to TLR9” value at murine TLR9 (setting [2]) is “binding was detected only in the late endosomal state where the natural ligand is present”. In addition, the “SPR binding to TLR9” value at murine TLR9 (setting [3]) is given as “clear binding affinity”. Further, in test [1], the “Expression of IMQ-induced inflammation-associated genes” value is “markedly reduced”, the “Differentially expressed genes (DEGs)” value is on record as 727, the “Downregulated DEGs” value is 380 and the “Upregulated DEGs” value came out at 347.
